# From the supplement of paper PMC10307832
# What was measured:
# Assay in all cases: relative viability (nuclei count vs DMSO), 5 days (fraction); higher = more cells survive
# [1] = compound: CCc1cnn2c(NCc3ccc[n+]([O-])c3)cc(N3CCCC[C@H]3CCO)nc12 [Dinaciclib] + CC(=O)c1c(C)c2cnc(Nc3ccc(N4CCNCC4)cn3)nc2n(C2CCCC2)c1=O [Palbociclib] (partner 0.5 µM)
# Procedure, shortened: (§1)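 Dosing by pin tool came one day after lung cancer cell lines were seeded in 1536-well plates, using either one drug or a fixed anchor-drug dose plus five library-drug doses (not always all listed) in √10 steps. After 5 days, nuclei were counted on 4× images. Relative viability is treated-well nuclei count divided by vehicle-well nuclei count, and values are medians of duplicate plates.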
# [2] = compound: CCc1cnn2c(NCc3ccc[n+]([O-])c3)cc(N3CCCC[C@H]3CCO)nc12 [Dinaciclib] + CCNC(=O)c1noc(-c2cc(C(C)C)c(O)cc2O)c1-c1ccc(CN2CCOCC2)cc1 [Luminespib] (partner 0.01 µM)
# Procedure, shortened: as §1
# [3] = compound: CCc1cnn2c(NCc3ccc[n+]([O-])c3)cc(N3CCCC[C@H]3CCO)nc12 [Dinaciclib] + C[C@]1(O)C[C@@H](c2nc(-c3ccc4ccc(-c5ccccc5)nc4c3)c3c(N)nccn32)C1 [Linsitinib] (partner 1 µM)
# Procedure, shortened: as §1
# [4] = compound: CCc1cnn2c(NCc3ccc[n+]([O-])c3)cc(N3CCCC[C@H]3CCO)nc12 [Dinaciclib] + O=C(c1cc(Cc2n[nH]c(=O)c3ccccc23)ccc1F)N1CCN(C(=O)C2CC2)CC1 [Olaparib] (partner 8 µM)
# Procedure, shortened: as §1
# [5] = compound: CCc1cnn2c(NCc3ccc[n+]([O-])c3)cc(N3CCCC[C@H]3CCO)nc12 [Dinaciclib] + NC(=O)Nc1cc(-c2cccc(F)c2)sc1C(=O)N[C@H]1CCCNC1 [AZD7762] (partner 0.2 µM)
# Procedure, shortened: as §1
Cell Line,relative viability ([1]; first compound 0.009487 µM),relative viability ([1]; first compound 0.03 µM),relative viability ([1]; first compound 0.09487 µM),relative viability ([1]; first compound 0.3 µM),relative viability ([2]; first compound 0.009487 µM),relative viability ([2]; first compound 0.03 µM),relative viability ([2]; first compound 0.09487 µM),relative viability ([2]; first compound 0.3 µM),relative viability ([3]; first compound 0.009487 µM),relative viability ([3]; first compound 0.03 µM),relative viability ([3]; first compound 0.09487 µM),relative viability ([3]; first compound 0.3 µM),relative viability ([4]; first compound 0.009487 µM),relative viability ([4]; first compound 0.03 µM),relative viability ([4]; first compound 0.09487 µM),relative viability ([4]; first compound 0.3 µM),relative viability ([5]; first compound 0.009487 µM),relative viability ([5]; first compound 0.03 µM),relative viability ([5]; first compound 0.09487 µM),relative viability ([5]; first compound 0.3 µM)
NCI-H2009,0.243,0.0729,0.0659,0.057,0.649,0.0986,0.101,0.101,1.12,0.283,0.105,0.104,0.584,0.254,0.0848,0.0797,,,,
NCI-H2023,0.301,0.0599,0.0471,0.063,0.561,0.058,0.055,0.0469,0.442,0.0999,0.0724,0.0763,0.29,0.0582,0.0542,0.0574,,,,
NCI-H2170,0.387,0.122,0.103,0.117,0.608,0.142,0.142,0.146,,,,,0.429,0.11,0.0975,0.113,0.705,0.122,0.108,0.128
NCI-H2228,0.651,0.115,0.0872,0.0982,0.147,0.127,0.116,0.0939,0.715,0.466,0.109,0.13,0.793,0.181,0.101,0.143,,,,
NCI-H2342,0.475,0.575,0.447,0.271,0.715,0.511,0.27,0.255,,,,,0.391,0.306,0.176,0.192,0.627,0.572,0.206,0.225
SK-LU-1,0.393,0.229,0.17,0.165,0.198,0.138,0.115,0.118,0.859,0.218,0.165,0.221,0.381,0.173,0.165,0.16,,,,
SK-MES-1,0.327,0.179,0.18,0.154,0.428,0.131,0.167,0.152,1.08,0.493,0.168,0.164,0.333,0.16,0.139,0.139,,,,
SW 900,0.57,0.318,0.13,0.158,0.19,0.176,0.0768,0.0536,,,,,0.749,0.414,0.172,0.166,0.705,0.405,0.179,0.148
SW 1573,0.218,0.0747,0.0634,0.0773,0.126,0.0666,0.0548,0.0868,0.679,0.109,0.0988,0.0866,0.224,0.0736,0.062,0.0659,,,,
UMC-11,0.29,0.173,0.177,0.167,0.271,0.177,0.158,0.174,0.282,0.167,0.169,0.168,0.176,0.157,0.146,0.165,,,,
